Experiments:
[1] = ORAC assay, phenolic compounds found in strawberries; format: biochemical; details: strawberry combinations and individual antioxidants; values per gram
Source text: FIG. 5 provides the structures. […] Solubility was checked after thawing and dilution. […] All possible combinations of two compounds were mixed on an equal volume basis after being prepared at the concentrations found in Table 4 to ensure relative concentrations were maintained. Mixtures were then further diluted to match the lowest individual compound molarity to fit the Trolox standard curve. […] The same pattern was repeated for combinations of four: the top three synergistic combinations of three were combined with all possible fourth compounds. No statistically significant increases in antioxidant capacity were found for combinations of four. […] Combinations were prepared on the same day of their ORAC assay. ORAC assays were carried out according to Dávalos et al. […] Parameters of the assay were as follows: reader temperature: 37 degrees C., cycle number, 120; cycle time, 60 seconds; shaking mode, 3 seconds of orbital shaking before each cycle. A fluorescence filter with an excitation wavelength of 485/20 nm and an emission wavelength of 520/20 nm was used. Samples were prepared in 96-well plates in a mirror fashion, based on a planned layout. Each mirrored duplicate was averaged and counted as one data point. All samples were measured in quadruplicate (eight wells total) to obtain necessary statistical power. […] The data were analyzed using a Microsoft Excel 2007 (Microsoft, Redmond, Wash., USA) spreadsheet to determine area under the curve and to convert the data to Trolox equivalents based on the Trolox standard curve. […] Likewise, for combinations of three and four, the difference was calculated by subtracting the average of the individual three or four compounds from the combination. […] Difference=(combination abc)−(combination ab+individual c) (7) Difference=(combination abcd)−(combination abc+d) (8)

[2] = marketed products and foods listed for comparison; cited from earlier work
[3] = marketed products and foods listed for comparison; cited from earlier work; remark: listed apart in the source
[4] = Solubility on stock solution preparation; details: weighable concentrations, stock solution in methanol / NaOH
Description: Because of the high water content of oranges, no density adjustment was made. Compounds were prepared assuming 100 g was 100 mL in volume. All compounds except hesperidin and luteolin were weighed (10× to 1000× of Table 1 concentration to facilitate weighing) and dissolved in methanol. […] The phenolic stock solutions were stored in 1 mL aliquots at −20.C. Phenolics were brought to RT, vortexed, and diluted in 7:3 (v:v) acetone:water to match the fruit concentrations in Table 1. To fit the Trolox standard curve (see below for assay description), compounds were further diluted in 7:3 (v:v) acetone:water to the following molar concentrations prior to transfer to the 96-well plate: chlorogenic acid, 10.7 μM; hesperidin, 10.2 μM; luteolin, 2.45 μM; myricetin, 0.786 μM; naringenin, 2.61 μM; pcoumaric acid, 1.95 μM; and quercetin, 6.62 μM. Solubility was checked after thawing and dilution. All work involving phenolic compounds, fluorescein, and Trolox was performed in dark conditions to minimize degradation.
It was assumed that 1 g fruit puree was 1 ml in volume for sample preparation, as a density adjustment would not change relative concentrations that would be tested. All compounds except ellagic acid were weighed then dissolved in methanol. […] The phenolic stock solutions were stored in 1 mL aliquots at −20° C. […]

[5] = published values (Jorgensen & Skibsted 1998; Foley et al. 1999); cited from earlier work

SMILES: O=c1oc2c(O)c(O)cc3c(=O)oc4c(O)c(O)cc1c4c23 [ellagic acid]
- ORAC Value (µmol Trolox equivalents/g) [1]: 7820 µmol Trolox equivalents/g

SMILES: O=C1O[C@H]([C@@H](O)CO)C(O)=C1O [ascorbic acid (vitamin C), ascorbic acid]
- ORAC Value [2]: 2,000 mol Trolox Equivalents/g of mixture
- ORAC Value (μmol Trolox Equivalents/g of mixture) [3]: 2,000 μmol Trolox Equivalents/g of mixture

SMILES: COc1ccc([C@@H]2CC(=O)c3c(O)cc(O[C@@H]4O[C@H](CO[C@@H]5O[C@@H](C)[C@H](O)[C@@H](O)[C@H]5O)[C@@H](O)[C@H](O)[C@H]4O)cc3O2)cc1O [hesperidin]
- solubility [4]: only fully soluble at weighable concentrations in a basic solution

SMILES: O=C(O)/C=C/c1ccc(O)cc1 [p-coumaric acid]
- ORAC Value (µmol Trolox equivalents/g) [1]: 20500 µmol Trolox equivalents/g
- one-electron reduction potential [5]: 0.59 V

SMILES: O=c1c(O[C@@H]2O[C@H](CO)[C@@H](O)[C@H](O)[C@H]2O)c(-c2ccc(O)c(O)c2)oc2cc(O)cc(O)c12 [quercetin-3-glucoside]
- ORAC Value (µmol Trolox equivalents/g) [1]: 20300 µmol Trolox equivalents/g

SMILES: O=c1c(O)c(-c2ccc(O)c(O)c2)oc2cc(O)cc(O)c12 [quercetin]
- one-electron reduction potential [5]: 0.29 V

SMILES: O=c1c(O)c(-c2ccc(O)cc2)oc2cc(O)cc(O)c12 [kaempferol]
- one-electron reduction potential [5]: 0.39 V

From US20110136245A1, “SYNERGISTIC INTERACTIONS OF PHENOLIC COMPOUNDS FOUND IN FOOD” (priority 2009, published 2011)
